Assays:
[1] = molecular target: corticotropin-releasing factor receptor (rat); assay: Binding affinity to rat CRF receptor assessed as inhibition constant
[2] = Binding affinity to CRF (unknown origin) receptor assessed as inhibition constant

| SMILES | Ki [1] | Ki [2] |
| --- | --- | --- |
| CCCC(CCC)c1c(CC)nn2c(-c3ccc(Cl)cc3Cl)nc(C)nc12 | 1 nM | – |
| CCCC(COC)c1c(CC)nn2c(-c3ccc(Cl)cc3Cl)nc(C)nc12 (stereo not given) | 1.4 nM | – |
| CCCC(COC)c1c(CC)nn2c(-c3cc(OC)c(OC)cc3Cl)nc(C)nc12 (stereo not given) | 2 nM | – |
| CCCC(C)c1c(CC)nn2c(-c3cc(OC)c(OC)cc3Cl)nc(C)nc12 (stereo not given) | 2.6 nM | – |
| CCCC(CCC)c1c(CC)nn2c(-c3cc(OC)c(OC)cc3Cl)nc(C)nc12 | – | 0.7 nM |

Source: BindingDB's records for PubMed 34147747 (n/a, 2021)
